Where two headings read alike, the source gives them in different places.
Experiments:
[1] = molecular target: T1, α4β2 subtype of nicotinic acetylcholine receptors (Rattus norvegicus, UniProt P09483+P12390); test: Binding assays at α4β2 subtype of nicotinic acetylcholine receptors ([3H]-cytisine, rat brain membrane)
T1 construct: examined using rat brain membrane obtained from whole homogenized brain; from tissue; host or cells: whole brain of Fischer-344 male rats, membrane pellet

[2] = molecular target: T2, α1β1γδ subtype of nicotinic acetylcholine receptors (Rattus norvegicus, UniProt P18916+P25108+P25109+P25110); test: Binding assays at α1β1γδ subtype of nicotinic acetylcholine receptors ([3H]-α-bungarotoxin, rat muscle extract); details: for remaining activity at 100 µM / remaining activity at 1000 µM: read-out: control % of [3H]-α-Bgt binding
T2 construct: Native receptor, no construct: "Triton X100 (2% w/v) was added
T2 sequence (P25108 21-457): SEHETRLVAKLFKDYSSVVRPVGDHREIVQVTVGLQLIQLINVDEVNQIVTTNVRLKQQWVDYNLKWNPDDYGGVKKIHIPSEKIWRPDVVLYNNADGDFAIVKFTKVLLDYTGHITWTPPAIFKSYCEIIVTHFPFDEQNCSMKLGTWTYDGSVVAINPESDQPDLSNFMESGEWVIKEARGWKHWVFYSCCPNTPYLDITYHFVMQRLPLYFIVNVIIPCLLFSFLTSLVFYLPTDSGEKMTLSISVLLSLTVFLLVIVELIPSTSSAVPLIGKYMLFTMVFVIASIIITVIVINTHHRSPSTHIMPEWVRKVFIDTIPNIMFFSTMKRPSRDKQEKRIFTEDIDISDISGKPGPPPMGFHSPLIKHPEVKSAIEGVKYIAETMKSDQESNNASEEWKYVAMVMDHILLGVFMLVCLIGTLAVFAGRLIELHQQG
T2 sequence (P25110 22-517): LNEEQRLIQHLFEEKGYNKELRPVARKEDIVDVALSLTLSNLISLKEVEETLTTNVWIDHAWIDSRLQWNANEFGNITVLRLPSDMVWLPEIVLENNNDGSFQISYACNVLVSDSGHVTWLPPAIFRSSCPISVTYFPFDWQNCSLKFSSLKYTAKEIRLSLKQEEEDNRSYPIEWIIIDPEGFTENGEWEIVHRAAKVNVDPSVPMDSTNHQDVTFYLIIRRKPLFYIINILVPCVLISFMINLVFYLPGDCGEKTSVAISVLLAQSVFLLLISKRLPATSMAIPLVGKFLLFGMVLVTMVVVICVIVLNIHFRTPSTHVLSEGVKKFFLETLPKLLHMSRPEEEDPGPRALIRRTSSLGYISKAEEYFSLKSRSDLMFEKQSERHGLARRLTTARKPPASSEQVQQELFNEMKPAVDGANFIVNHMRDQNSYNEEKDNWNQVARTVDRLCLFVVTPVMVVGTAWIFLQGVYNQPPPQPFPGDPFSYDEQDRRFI
T2 sequence (P25109 24-501): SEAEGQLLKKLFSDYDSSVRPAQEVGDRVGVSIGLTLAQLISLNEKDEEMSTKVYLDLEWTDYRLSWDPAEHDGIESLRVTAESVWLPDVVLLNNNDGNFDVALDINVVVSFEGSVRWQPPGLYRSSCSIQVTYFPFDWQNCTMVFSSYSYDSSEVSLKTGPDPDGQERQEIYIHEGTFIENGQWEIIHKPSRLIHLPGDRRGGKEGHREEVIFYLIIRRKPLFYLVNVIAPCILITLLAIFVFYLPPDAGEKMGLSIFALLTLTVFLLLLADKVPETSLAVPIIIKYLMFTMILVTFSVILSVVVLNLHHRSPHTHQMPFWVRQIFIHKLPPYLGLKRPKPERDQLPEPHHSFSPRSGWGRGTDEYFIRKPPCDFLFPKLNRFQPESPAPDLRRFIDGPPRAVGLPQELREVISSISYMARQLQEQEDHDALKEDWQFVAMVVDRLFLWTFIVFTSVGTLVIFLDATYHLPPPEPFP

[3] = rat brain membrane, [3H]-cytisine (2 nM), read-out: Affinities for receptors Ki α4β2

T1 sequence (P09483 31-630): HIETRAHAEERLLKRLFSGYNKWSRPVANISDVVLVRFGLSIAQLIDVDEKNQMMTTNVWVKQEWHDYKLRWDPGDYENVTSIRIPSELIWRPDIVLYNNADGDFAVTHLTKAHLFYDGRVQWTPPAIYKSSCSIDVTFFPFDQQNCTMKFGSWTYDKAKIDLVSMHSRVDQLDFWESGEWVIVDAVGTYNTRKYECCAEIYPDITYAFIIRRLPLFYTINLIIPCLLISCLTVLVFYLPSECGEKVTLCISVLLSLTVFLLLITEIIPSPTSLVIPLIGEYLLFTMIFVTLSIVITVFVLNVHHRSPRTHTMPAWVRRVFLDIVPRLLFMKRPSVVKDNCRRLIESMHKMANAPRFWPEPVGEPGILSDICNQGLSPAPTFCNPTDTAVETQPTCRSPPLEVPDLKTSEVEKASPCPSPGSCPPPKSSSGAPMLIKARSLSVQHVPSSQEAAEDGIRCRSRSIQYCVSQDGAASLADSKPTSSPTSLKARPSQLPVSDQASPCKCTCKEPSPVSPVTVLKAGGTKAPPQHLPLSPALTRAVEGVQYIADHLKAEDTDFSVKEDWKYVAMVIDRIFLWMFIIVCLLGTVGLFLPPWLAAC
T1 sequence (P12390 25-500): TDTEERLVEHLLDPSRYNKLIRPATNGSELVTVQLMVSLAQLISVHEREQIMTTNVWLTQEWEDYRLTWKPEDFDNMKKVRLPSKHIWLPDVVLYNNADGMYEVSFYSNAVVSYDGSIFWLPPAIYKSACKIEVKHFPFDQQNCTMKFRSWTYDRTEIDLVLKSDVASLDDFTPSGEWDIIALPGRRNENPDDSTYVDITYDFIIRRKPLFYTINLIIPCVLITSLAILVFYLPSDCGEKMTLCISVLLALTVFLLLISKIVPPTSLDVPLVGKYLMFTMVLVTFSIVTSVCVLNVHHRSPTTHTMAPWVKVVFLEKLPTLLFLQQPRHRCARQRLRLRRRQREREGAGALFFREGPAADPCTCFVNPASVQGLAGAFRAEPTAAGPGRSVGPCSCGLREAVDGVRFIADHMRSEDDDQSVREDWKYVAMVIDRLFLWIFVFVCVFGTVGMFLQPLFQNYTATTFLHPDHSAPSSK

N=C1SCCN1Cc1ccc(Cl)nc1 [Compound 5, 3-(6-chloro-3-pyridyl)methyl-2-iminothiazolidine]
Ki [1, 3]: 2.2 nM
Ki [2]: 7650 nM

N=c1ccccn1Cc1ccc(Cl)nc1 [Compound 7, 1-(6-chloro-3-pyridyl)methyl-2-imino-1,2-dihydropyridine]
Ki [1, 3]: 3.1 nM
Ki [2]: 71200 nM

N=c1sccn1Cc1ccc(Cl)nc1 [Compound 8, 3-(6-chloro-3-pyridyl)methyl-2-imino-2,3-dihydrothiazole]
Ki [1, 3]: 0.5 nM
Ki [2]: 10200 nM

Nc1nccn1Cc1ccc(Cl)nc1 [Compound 9, 2-amino-1-(6-chloro-3-pyridyl)methylimidazole]
Ki [1, 3]: 22.2 nM
remaining activity at 100 µM [2]: 86%
remaining activity at 1000 µM [2]: 49%

N=c1sccn1Cc1ccc(Br)nc1 [Compound 11, 3-(6-bromo-3-pyridyl)methyl-2-imino-2,3-dihydrothiazole]
Ki [1]: 0.63 nM
remaining activity at 100 µM [2]: 13%
remaining activity at 1000 µM [2]: 5%

N=c1sccn1Cc1ccc(F)nc1 [Compound 12, 3-(6-fluoro-3-pyridyl)methyl-2-imino-2,3-dihydrothiazole]
Ki [1]: 1.89 nM
remaining activity at 100 µM [2]: 20%
remaining activity at 1000 µM [2]: -2%

N=C1NCCN1Cc1ccc(Cl)nc1 [Compound 13, 1-(6-Chloro-3-pyridyl)methyl-2-iminoimidazolidine]
Ki [1, 3]: 4.6 nM
remaining activity at 100 µM [2]: 26%
remaining activity at 1000 µM [2]: 8%

N=C1CCCN1Cc1ccc(Cl)nc1 [Compound 14, 1-(6-Chloro-3-pyridyl)methyl-2-iminopyrrolidine]
Ki [1, 3]: 1.9 nM
remaining activity at 100 µM [2]: 14%
remaining activity at 1000 µM [2]: 0%

N=C1SCCN1Cc1ccc(Cl)cc1 [Compound 31, 3-(4-chlorobenzyl)-2-iminothiazolidine]
Ki [1]: 93 nM
remaining activity at 100 µM [2]: 37%
remaining activity at 1000 µM [2]: 10%

N=C1SCCN1Cc1ccnnc1 [Compound 33, 2-imino-3-(4-pyridazinyl)methylthiazolidine]
Ki [1]: 32 nM
remaining activity at 100 µM [2]: 15%
remaining activity at 1000 µM [2]: 1%

N=C1SCCN1Cc1cnc(Cl)s1 [Compound 34, 3-(2-chloro-5-thiazolyl)methyl-2-iminothiazolidine]
Ki [1]: 4.9 nM
remaining activity at 100 µM [2]: 14%
remaining activity at 1000 µM [2]: -1%

N=c1ccc(-c2ccccc2)nn1Cc1ccc(Cl)nc1 [Compound 44, 2-(6-chloro-3-pyridyl)methyl-3-imino-6-phenyl-2,3-dihydropyridazine]
Ki [1]: 64 nM
remaining activity at 100 µM [2]: 80%
remaining activity at 1000 µM [2]: 26%

Nc1nccn1Cc1cccnc1 [Compound 55, 2-amino-i-(3-pyridyl)methylimidazole]
Ki [1, 3]: 43 nM
Ki ([2]; rat muscle extract, [3H]-α-Bgt (1 nM), read-out: Affinities for receptors Ki α1β1γδ): 66000 nM

Reference: patent publication US20020028809A1 (SUNTORY LIMITED, priority 1999, published 2002)
